Experimental data taken from patent US11135214B2, “Methods for enhancing the bio availability and exposure of a voltage-gated potassium channel opener” (priority 2018, dated 2021).

Key:
[1] = tested on: spontaneous brain oscillations; assay: TMS crossover study, resting state EEG; type: in vivo, human
Source text: Sensor-level delta (2-4 Hz), theta (4-7 Hz), alpha (8-12 Hz) and beta (13-30 Hz) frequency activity was estimated using a Fast Fourier Transform (FFT) approach. Power of all frequencies between 2 and 30 Hz were estimated, using a frequency resolution of 0.5 Hz. A non-parametric dependent samples t-test based on a permutation approach (1500 permutations) was used to test differences between drug conditions on all EEG sensors.

[2] = tested on: cortical excitability; assay: TMS crossover study, TMS-evoked EEG potentials (TEPs); type: in vivo, human; settings: for N45 vs pre-dose: 4 h (p=0.03)
Experimental: All 20 subjects underwent TMS-EMG and TMS-EEG sessions prior to dosing on Days 1 and 7 and at 2 and 4 h after dosing. […] For the 6 h timepoint, RMT was performed for 16 subjects, and AMT, EEG resting state, and TMS-EEG was performed for 8 subjects.
Compound A-induced modulation of PD markers was evaluated as an effect of time (comparisons of 2, 4, and 6 h post-dose vs. pre-dose) and of concentration (using the post-dose measure taken during highest drug exposure vs. baseline).
TMS-evoked EEG potentials (TEPs) were calculated by averaging artefact-free EEG trials in the different experimental conditions (Table 17).
The following TEP components (P=positive, N=negative) in accordance with the literature were studied, value in parenthesis is the time of interest (TOI): P25 (15-35 ms), N45 (35-70 ms), P70 (70-80 ms), N100 (80-145 ms), and P180 (145-230 ms). TOIs were chosen on the basis of the grand-averaged TEPs and kept identical during the analysis of pre-dose and post-dose measurements and across conditions. To analyze drug-induced modulation of TEPs, we selected a region of interest (ROI) that was composed of 27 channels over and around the stimulation site (left M1) and the corresponding contralateral site (‘FC1’, ‘FC3’, ‘FC5’, ‘C1’, ‘C3’, ‘C5’, ‘CP1’, ‘CP3’, ‘CP5’, ‘P1’, ‘P3’, ‘P5’, ‘Cz’, ‘CPz’, ‘Pz’, ‘FC2’, ‘FC4’, ‘FC6’, ‘C2’, ‘C4’, ‘C6’, ‘CP2’, ‘CP4’, ‘CP6’, ‘P2’, ‘P4’, ‘P6’).
To analyze significance of TEP amplitude modulations induced by Compound A, multiple dependent sample t-test comparisons (post-dose vs. pre-dose) were applied for each TOI in all the electrodes within the indicated ROI. To correct for multiple comparisons (i.e., electrodes, timepoints), we conducted a non-parametric cluster-based permutation analysis as implemented in FieldTrip.

[3] = at highest Compound A plasma concentration vs pre-dose

For Cc1cc(N2CCc3cc(F)ccc3C2)cc(C)c1NC(=O)CC(C)(C)C [Compound A, N-[4-(6-fluoro-3,4-dihydro-1H-isoquinolin-2-yl)-2,6-dimethylphenyl]-3,3-dimethylbutanamide], the “shift of power spectra of resting state EEGs” value ([1]; 20 mg) was “toward lower frequencies”, the “Modulation of resting state EEG bands, Delta” value (“Modulation … Delta” below) ([1]; 2 h after dosing vs pre-dose) was “↑ Delta” and the “Modulation of resting state EEG bands, Theta” value (from here on “Modulation … Theta”) ([1]; 2 h after dosing vs pre-dose) was “↑ Theta”. The “Modulation of resting state EEG bands, Beta” value ([1]; 4 h after dosing vs pre-dose) was “↑ Beta”, the “Modulation … Delta” value ([1]; 4 h after dosing vs pre-dose) was “↑ Delta” and the “Modulation … Theta” value ([1]; 4 h after dosing vs pre-dose) was “↑ Theta”. For the same molecule, the “resting state delta power vs pre-dose” value ([1]; all available subjects, 2 h p<0.001, 4 h p<0.001) was “significantly increased”, the “resting state beta band power vs pre-dose” value ([1]; all available subjects, 2 h p=0.005, 4 h p<0.001, 6 h p=0.009) was “significantly increased” and the “resting state theta power vs pre-dose” value ([1]; all available subjects, 2 h p=0.006, 4 h two clusters p=0.008 and p=0.03) was “significantly increased”. For the same molecule, the “Modulation of resting state EEG bands, Beta” value [1, 3] was “↑ Beta”, the “Modulation … Delta” value [1, 3] was “↑ Delta” and the “Modulation … Theta” value [1, 3] was “↑ Theta”. The “resting state delta power vs pre-dose” value ([1]; concentration analysis N=16, high plasma exposure, p<0.001) was “increase in power”, the “resting state beta power vs pre-dose” value ([1]; concentration analysis N=16, high plasma exposure, p=0.005) was “increase in power” and the “resting state theta power vs pre-dose” value ([1]; concentration analysis N=16, high plasma exposure, p=0.01) was “increase in power”. The “resting state delta power compared to placebo” value ([1]; post-dose minus pre-dose, p<0.001) was “overall increase of power”, the “resting state beta power compared to placebo” value ([1]; post-dose minus pre-dose, p=0.003) was “overall increase of power” and the “resting state theta power compared to placebo” value ([1]; post-dose minus pre-dose, p=0.02) was “overall increase of power”. The “resting state delta power vs pre-dose” value ([1]; subjects with drug exposure, 2 h p=0.001, 4 h p<0.001) was “significantly increased”, the “resting state beta band power vs pre-dose” value ([1]; subjects with drug exposure, 2 h p=0.01, 4 h p<0.001) was “significantly increased” and the “resting state theta power vs pre-dose” value ([1]; subjects with drug exposure, 2 h p=0.01, 4 h p=0.01) was “significantly increased”. The “Modulation of TEPs, N45” value ([2]; 2 h after dosing vs pre-dose) was “Not significant”, the “Modulation of TEPs, P180” value ([2]; 2 h after dosing vs pre-dose) was “Not significant” and the “N15-P25 complex vs pre-dose” value ([2]; all available subjects, 2 h (p=0.006) and 4 h (p=0.01)) was “decreased”. The P180 vs pre-dose ([2]; all available subjects, 4 h (p=0.02)) was “significantly suppressed”, the N45 vs pre-dose ([2]; all available subjects) was “significantly suppressed” and the “TEP amplitude P180” value ([2]; concentration analysis N=16, highest plasma concentration, printed 2.2 vs 3.0 μV, p<0.01) was 2.2 μV. For the same molecule, the “peak-to-peak amplitude of early complex N15-P25 (15 to 35 ms)” value ([2]; concentration analysis N=16, highest plasma concentration, printed 4.5 vs 6.0 μV, p<0.05) was 4.5 μV, the “TEP amplitude N45” value ([2]; concentration analysis N=16, highest plasma concentration, printed −2.3 vs −3.0 μV, p<0.01) was −2.3 μV and the “N15-P25 complex vs pre-dose” value ([2]; subjects with drug exposure, 2 h (p=0.008) and 4 h (p=0.02)) was “decreased”. For the same molecule, the P180 vs pre-dose ([2]; subjects with drug exposure, 4 h (p=0.004)) was “significantly suppressed”, the N45 vs pre-dose ([2]; subjects with drug exposure) was “significantly suppressed” and the N100 vs pre-dose ([2]; subjects with drug exposure, 4 h (p=0.04)) was “significantly suppressed”.
